According to patent US20200079786A1, “ANALOGS OF […] AS SOLUBLE EPOXIDE HYDROLASE INHIBITORS” (UNIVERSITAT DE BARCELONA, priority 2015, published 2020):
Converted amounts (≈) assume the structure as drawn. Where two headings read alike, the source gives them in different places.

What was measured:
recombinant human sEH = molecular target: T1, recombinant human sEH (Homo sapiens, UniProt P34913); experiment: In vitro determination of sEH inhibition activity (fluorescent assay, PHOME substrate); assay type: biochemical; conditions: mean ± Standard Error, min. three replicates, read-out: IC50 (nM) ± SE, sEH inhibition activity
T1 construct: purchased Cayman Chemical 10011669
T1 sequence (P34913 1-555): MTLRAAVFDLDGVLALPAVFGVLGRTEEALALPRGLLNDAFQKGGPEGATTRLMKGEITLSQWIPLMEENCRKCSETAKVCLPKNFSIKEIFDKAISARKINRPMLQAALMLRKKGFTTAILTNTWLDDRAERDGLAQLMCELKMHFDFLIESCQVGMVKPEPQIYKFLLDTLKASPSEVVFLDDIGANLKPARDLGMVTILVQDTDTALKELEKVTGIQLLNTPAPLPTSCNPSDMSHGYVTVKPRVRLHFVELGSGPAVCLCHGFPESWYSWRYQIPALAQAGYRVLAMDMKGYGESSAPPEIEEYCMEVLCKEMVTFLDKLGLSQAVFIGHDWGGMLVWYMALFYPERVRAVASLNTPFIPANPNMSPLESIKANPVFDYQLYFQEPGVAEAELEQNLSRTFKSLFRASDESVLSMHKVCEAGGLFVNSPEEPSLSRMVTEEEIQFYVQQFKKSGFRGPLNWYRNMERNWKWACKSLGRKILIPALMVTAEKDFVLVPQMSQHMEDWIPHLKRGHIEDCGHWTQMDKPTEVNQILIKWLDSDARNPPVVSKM
Protocol: 3-(Phenyl-oxiranyl)-acetic acid cyano-(6-methoxy-naphthalen-2-yl)-methyl ester (PHOME; from Cayman Chemical, item number 10009134; CAS 1028430-42-3); cf. N. M. Wolf et al., Anal. Biochem. 2006, vol. 355, pp. 71-80.
Solutions: • Assay buffer: Bis/Tris HCl 25 mM pH 7.0 containing 0.1 mg/mL of bovine serum albumin (BSA). • PHOME at 200 μM in DMSO. • Solution of recombinant human sEH (Cayman Chemical, item number 10011669), diluted with assay buffer. • Inhibitors dissolved in DMSO at appropriated concentrations.
In a black 96-well plate (Greiner Bio-One, item number 655900), fill the background wells with 90 μL and the positive control and inhibitor wells with 85 μL of assay buffer. Add 5 μL of DMSO to background and positive control wells, and then add 5 μL of inhibitor solution in inhibitor wells. Add 5 μL of the solution of hsEH to the positive control and inhibitor wells and mix several time. Prepare a 1/21 dilution of the solution of PHOME with assay buffer according to final volume required, and then add 105 μL of each well. Shake carefully the plate for 10 seconds and incubate for 5 minutes at room temperature. […] Results were obtained by regression analysis from at least three data points in a linear region of the curve. IC50 values are average of minimum three independent replicates.

[1] = Determination of water solubility (nephelometry); assay type: physicochemical; conditions: aqueous with cosolvent or surfactant or cyclodextrin, kinetic from dmso stock; 5% DMSO: 95% PBS buffer, 37° C., read after 2 and 4 h; read-out: S (solubility)
[2] = Parallel artificial membrane permeation assay for blood-brain barrier (PAMPA-BBB); assay type: in vitro ADME, porcine; conditions: PBS:EtOH (70:30)
Protocol: The in vitro permeability (Pe) of the test compounds through lipid extract of porcine brain membrane was determined. Assayed compounds were tested using a mixture of PBS:EtOH (70:30). […] From this equation and taking into account the limits established by Di et al. for BBB permeation, the ranges of permeability were established, as follows.

[3] = Determination of cytotoxicity in THLE-2 cells (ATP viability); assay type: cell-based; conditions: human
Protocol: Cytotoxic effects of assayed compounds were tested using the immortalized human liver cell line THLE-2 (ATCC CRL-2706). Cells were cultured in BEGM medium (Clonetics # CC-4175) containing all the supplements kit except additional EGF and G418. Medium was completed by adding 0.7 μg/mL phosphoethanolamine, 0.5 ng/mL epidermal growth factor, antibiotics (penicillin and streptomycin) and 10% fetal bovine serum (FBS).
Cells were plated in 96-well black microplates at 10,000 cells/well density and were incubated at 37° C. (5% CO2, 95% humidity) for 24 h to allow the cells to adhere and form a monolayer. Test compounds were solubilized in 100% DMSO at a concentration curve way and then diluted with cell culture medium containing 10% DMSO. The final concentrations of the test compounds (1% DMSO) ranged from 0-100 μM in a final volume of 200 μL. Microplates were maintained at 37° C. (5% CO2, 95% humidity) during 3 days. Following this 72 h exposure to test compounds, cell viability in each well was determined by measuring the concentration of cellular adenosine triphosphate (ATP) using the ATP1Step Kit as described by the manufacturer (Perkin-Elmer). In a typical procedure, 50 μL of cell reagent is added to all wells of each test plate followed by incubation for 10 min at room temperature on an orbital shaker. ATP concentration was determined by reading chemical luminescence using the Envision plate reader (PerkinElmer). The percentage of viable cells relative to the non-drug treated controls was determined for each well and LC50 values were calculated as concentrations projected to kill 50% of the cells following a 72 h exposure, an average of minimum two independent replicates.

sEH in AR42j cells = molecular target: T2, sEH in AR42j cells (Rattus norvegicus, UniProt P80299); experiment: In vitro determination of sEH inhibition activity in AR42j cells (cell-based fluorescent assay); conditions: AR-42J, read-out: % Inhn. ± SE (100 μM), sEH inhibition activity in cell culture
T2 sequence (P80299 1-554): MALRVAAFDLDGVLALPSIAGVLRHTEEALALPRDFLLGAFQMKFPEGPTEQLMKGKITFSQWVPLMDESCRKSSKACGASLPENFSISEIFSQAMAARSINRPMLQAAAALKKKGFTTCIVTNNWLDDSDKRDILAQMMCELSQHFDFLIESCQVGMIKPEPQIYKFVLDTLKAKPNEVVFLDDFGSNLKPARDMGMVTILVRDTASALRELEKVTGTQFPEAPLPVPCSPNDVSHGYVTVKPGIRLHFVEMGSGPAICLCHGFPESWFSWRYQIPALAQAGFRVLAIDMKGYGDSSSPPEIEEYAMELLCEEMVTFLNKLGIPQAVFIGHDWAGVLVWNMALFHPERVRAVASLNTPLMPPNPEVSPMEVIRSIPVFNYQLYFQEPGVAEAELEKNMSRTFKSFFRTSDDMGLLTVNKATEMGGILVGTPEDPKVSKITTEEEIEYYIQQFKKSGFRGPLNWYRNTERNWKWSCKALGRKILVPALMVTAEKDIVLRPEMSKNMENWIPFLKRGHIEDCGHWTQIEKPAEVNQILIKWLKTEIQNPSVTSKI
Protocol: Solutions Preparation: • Assay buffer 1×: add 10 mL of the CBA-Buffer (10×) to 90 mL of distilled water. • Lysis Buffer: add 50 μL of the CBA Digitonin Solution to 10 mL of Buffer Assay 1×. • Substrate Solution: dilute 10 μL of CBA sEH Substrate with 10 mL of Assay Buffer 1×. • Standards: preparation of 7 concentrations of CBA 6-methoxy-2-naphtalaldehyde from 0 until 2 M with Assay Buffer 1×. • sEH Positive Control: Prepare another stock A (1 μg/ml: 1 μL CBA sEH Positive Control+1 mL Assay Buffer 1×). From the already prepared stock A, prepare 250 μL of sEH (10 ng/mL): 2.5 μL sEH stock A+250 μL Assay Buffer 1×). • sEH Inhibitor AUDA: dilute 10 μL CBA sEH Inhibitor with 500 ml Assay Buffer 1×. • Inhibitors dissolved in DMSO at appropriated concentrations.
Seed cells in a 96-well plate at a density of (2×10^4)-(5×10^4) cells/well in 100 μL of culture medium with or without compounds to be tested. Incubation of the cells in a CO2 incubator at 37° C. for 48 hours. Aspirate the culture medium and add 200 μL of Assay Buffer 1× to each well. Centrifuge the plate at 800 rmp for 5 minutes. Aspirate the supernatant and add 100 μL of Lysis Buffer to each well. Incubate with gentle shaking on an orbital shaker for 30 minutes at room temperature. Centrifuge the plate at 3000 rpm for 20 minutes at 4° C. Transfer 90 μL of the supernatants to the 96-Well Solid Plate (black). Add 10 μL Assay Buffer 1× or 10 μL of the AUDA solution to appropriate wells. For positive control wells, add 100 μL of the 10 ng/mL sEH Positive Control to two wells. Add 200 μL of 6-methoxy-2-Naphthaldehyde Standards to corresponding wells of the black plate. Add 100 μL of the sEH Substrate Solution to each well, except the standards. Incubate the plate at 37° C. for 30 minutes. […] The intensity of fluorescence was used to analyze and calculate inhibition percentages, shown in the Table as average of minimum three independent replicates.

CYP1A2 = molecular target: T3, CYP1A2 (Homo sapiens, UniProt P05177); experiment: Inhibition of human cytochrome P450 CYP1A2; assay type: in vitro ADME; conditions: human cytochrome P450 enzyme
T3 sequence (P05177 1-516): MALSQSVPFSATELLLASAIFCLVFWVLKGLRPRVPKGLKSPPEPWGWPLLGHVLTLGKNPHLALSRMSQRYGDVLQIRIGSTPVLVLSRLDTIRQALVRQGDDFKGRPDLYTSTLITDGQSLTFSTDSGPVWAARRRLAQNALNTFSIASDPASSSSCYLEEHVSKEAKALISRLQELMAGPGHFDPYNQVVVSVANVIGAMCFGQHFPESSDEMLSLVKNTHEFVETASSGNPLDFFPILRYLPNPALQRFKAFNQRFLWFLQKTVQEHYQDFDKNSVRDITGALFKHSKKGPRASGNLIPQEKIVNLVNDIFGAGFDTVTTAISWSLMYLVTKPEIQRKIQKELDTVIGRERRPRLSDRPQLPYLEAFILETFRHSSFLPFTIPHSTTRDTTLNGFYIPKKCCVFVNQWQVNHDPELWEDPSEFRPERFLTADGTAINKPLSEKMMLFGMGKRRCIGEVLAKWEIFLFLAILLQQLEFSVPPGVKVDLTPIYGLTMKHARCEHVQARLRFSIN
Source text: (§1) The epoxidation of arachidonic acid (AA) by selected cytochrome P450 epoxygenases generates epoxyeicosatrienoic acids (EETs). These EETs show anti-inflammatory, antihypertensive, analgesic, angiogenic, and antiatherosclerotic effects in rodents and humans. sEH converts EETs to their corresponding dihydroxyeicosatrienoic acids (DHETs), whereby the biological effects of EETs are diminished, eliminated, or altered. Among the P450 enzymes, it is known that CYP2C19 and CYP1A2 have the highest formation rate of EETs from AA (cf. A. A. El-Sherbeni et al. “Repurposing resveratrol and fluconazole to modulate human cytrochrome P450-mediated arachidonic acid metabolites”, Molecular Pharmaceutics 2016, vol. 13, pp. 1278-1288). For this reason, a highly desirable aspect of any new sEH inhibitor is selectivity in front of CYP2C19 and CYP1A2.

CYP2C19 = CYP2C19 (Homo sapiens, UniProt P33261); experiment: Inhibition of human cytochrome P450 CYP2C19; assay type: in vitro ADME; conditions: human cytochrome P450 enzyme
Chain of CYP2C19 (P33261 whole entry): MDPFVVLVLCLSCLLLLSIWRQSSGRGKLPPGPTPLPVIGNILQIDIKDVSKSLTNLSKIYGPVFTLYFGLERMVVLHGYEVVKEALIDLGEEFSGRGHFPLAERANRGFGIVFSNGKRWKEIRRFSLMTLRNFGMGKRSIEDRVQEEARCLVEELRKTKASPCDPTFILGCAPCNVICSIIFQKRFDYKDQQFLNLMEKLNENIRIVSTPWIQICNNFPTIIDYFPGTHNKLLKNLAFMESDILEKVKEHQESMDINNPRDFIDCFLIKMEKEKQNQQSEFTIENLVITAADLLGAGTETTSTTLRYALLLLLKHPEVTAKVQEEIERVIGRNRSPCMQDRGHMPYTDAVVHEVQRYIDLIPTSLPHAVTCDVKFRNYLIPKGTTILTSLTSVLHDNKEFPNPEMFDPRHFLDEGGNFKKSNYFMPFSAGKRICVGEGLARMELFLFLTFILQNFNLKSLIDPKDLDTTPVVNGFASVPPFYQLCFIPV
Source text: as §1

Compound	IC50 (recombinant human sEH) [nM]	solubility [1] [µM]	CNS prediction [2]	CC50 at 72 h [3] [µM]	inhibition at 100 µM (sEH in AR42j cells) [%]	inhibition at 1 µM (CYP1A2) [%]	inhibition at 1 µM (CYP2C19) [%]	CC50 at 72 h ([3]; THLE-2 cells, 72 h exposure, 0-100 μM, read-out: LC50 (μM), cytotoxicity) [µM]
O=C(Nc1ccc(F)c(F)c1F)N[C@@]12CC3C[C@H](C1)C[C@](C1CCCCC1)(C3)O2 (stereo in doubt) [Id, 1-(3-cyclohexyl-2-oxaadamantan-1-yl)-3-(2,3,4-trifluorophenyl)urea]	17.5 ± 3.6							
CC12CC3CC(C1)CC(NC(=O)Nc1ccc(F)c(F)c1F)(C3)O2 [Ib, 1-(3-methyl-2-oxaadamantan-1-yl)-3-(2,3,4-trifluorophenyl)urea]	21.3 ± 5.4	63 (≈ 21.4 µg/mL)	CNS+ (Compounds of high BBB permeation (CNS+): Pe (10^6 cm s^−1)>5.181)	> 100				
CCC12CC3CC(C1)CC(NC(=O)Nc1ccc(F)c(F)c1F)(C3)O2 [Ic, 1-(3-ethyl-2-oxaadamantan-1-yl)-3-(2,3,4-trifluorophenyl)urea]	8.1 ± 3.2	77 (≈ 27.3 µg/mL)	CNS+ (Compounds of high BBB permeation (CNS+): Pe (10^6 cm s^−1)>5.181)	> 100				
O=C(Nc1ccc(F)c(F)c1F)NC12CC3CC(C1)CC(c1ccccc1)(C3)O2 [Ie, 1-(3-phenyl-2-oxaadamantan-1-yl)-3-(2,3,4-trifluorophenyl)urea]	21.3 ± 4.3							
CC(=O)N1CCC(NC(=O)NC23CC4CC(CC(C4)O2)C3)CC1 [If, 1-(2-oxaadamantan-1-yl)-3-(1-acetylpiperidin-4-yl)urea]	19.8 ± 6.2	> 100			42.1 ± 5	≤ 6	≤ 6	> 100
